In patent US12611406B2, “Oxopiperazine derivatives for the treatment of cancer” (Inthera Bioscience AG, priority 2020, dated 2026):

Assays:
[1] = tested on: SNU-16; assay: SNU-16 gastric cancer CDX mouse model; type: in vivo
Text: Left panel: Tumor growth curves. Right panel: Body weight development. […] QW: once weekly treatment. p.o.: per oral. QD: once daily treatment. BID: twice daily treatment. QW: once weekly treatment.
Values larger than 100% indicate tumor regression.

[2] = tested on: PR6512; assay: PR6512 mouse PDX prostate cancer model, daily oral; type: in vivo
Text: FIG. 7B the efficacy of Compound 1 in the in vivo mouse PDX prostate cancer model PR6512. […] QD: once daily treatment. po: per os.
Again, an effect of the body weight was detected in all treatment groups (including the vehicle group).

[3] = Single dose intravenous and oral PK in Beagle dogs (citrate salt); type: in vivo; design: AUC(0-t) / AUC(0-inf): unit not given here; conditions: for AUC(0-inf) / AUC(0-t) / Tmax / half-life: both sexes, dog, whole blood
Experimental: This study determined the PK profile of Compound 1 following a single intravenous injection or oral gavage administration to Beagle dogs.
Compound 1 (citrate salt) was administered to two groups of dogs (n=1/sex/group) once by intravenous injection on Day 1, dose levels of 1 (Group 1) or 4 (Group 2) mg/kg/adm, and once by oral gavage on Day 3, dose levels of 3 (Group 1) and 12 (Group 2) mg/kg/adm, respectively. The vehicle was 5% dextrose in water for intravenous and aqueous citrate buffer solution for oral gavage administrations. Relative to each dosing on Days 1 and 3, series of blood samples were collected at pre-dose, 0.083, 0.25, 0.5, 1, 2, 4, and 7 hours for intravenous or at 0.25, 0.5, 1, 2, 4, 7, and 24 hours for oral gavage administration for analysis of Compound 1 concentrations in blood and subsequent calculation of PK parameters. Additional endpoints monitored during this study included mortality, clinical observations and body weight.

[4] = tested on: A549 NSCLC cells; assay: Cell cycle FACS analysis; type: cell-based; conditions: A549, wild-type Rb and p53; 20 or 200 nM, 24 h
Experimental: (§1) Cell cycle phase distribution in control (C) cells or cells treated at 20 or 200 nM Compound 1 for 24 hours (24 h) determined by fluorescence activated cell sorting (FACS) analysis, and detection of histone H2A variant H2A.X phosphorylation (γH2A.X, also referred to herein as gamma H2A.X or γH2A.X) by Western blot as DNA damage biomarker.
In FIG. 3A, protein amounts were normalized using total protein load with ImageLab 6.0 Software (BioRad).

[5] = tested on: DU-145 cells; assay: Annexin V staining; type: cell-based
[6] = tested on: NCI-H146; assay: S-phase arrest (cell cycle FACS); type: cell-based; design: key: “+” (present); “−” (absent); conditions: Rb x, p53 x
Experimental: as §1
(§2) In table 1, “wt”=wild-type; “x”=cells harboring Rb and p53 deficiencies; “+” (present) or “−” (absent) indicate the arrest (i.e. accumulation) of cells in S-phase triggered by Compound 1, which coincided with accumulation of the DNA damage marker phosphorylated gamma H2AX (γH2AX; see FIG. 3A). These events are followed by activation of caspases 3 and 7 as indicators of cell apoptosis as indicated by “+” (present) or “−” (absent). In cancer cells with intact Rb and/or p53 functions (wt=wild-type), Compound 1 induced growth arrest but not a substantial increase of cells in S-phase (=S-phase arrest). Upon release of treatment, such cells are able to proliferate again.

[7] = tested on: 22Rv1; assay: S-phase arrest (cell cycle FACS); type: cell-based; design: key: “+” (present); “−” (absent); conditions: Rb wt, p53 wt
Experimental: as §1, §2

[8] = tested on: NCI-H69; assay: S-phase arrest (cell cycle FACS); type: cell-based; design: key: “+” (present); “−” (absent); conditions: Rb x, p53 x
Experimental: as §1, §2

[9] = tested on: LNCaP; assay: S-phase arrest (cell cycle FACS); type: cell-based; design: key: “+” (present); “−” (absent); conditions: Rb wt, p53 wt
Experimental: as §1, §2

[10] = tested on: DU-145; assay: S-phase arrest (cell cycle FACS); type: cell-based; design: key: “+” (present); “−” (absent); conditions: Rb x, p53 x
Experimental: as §1, §2

[11] = tested on: NCI-H660; assay: S-phase arrest (cell cycle FACS); type: cell-based; design: key: “+” (present); “−” (absent); conditions: Rb x, p53 x
Experimental: as §1, §2

[12] = tested on: Hut-78; assay: S-phase arrest (cell cycle FACS); type: cell-based; design: key: “+” (present); “−” (absent); conditions: Rb x, p53 x
Experimental: as §1, §2

[13] = tested on: NCI-H209; assay: S-phase arrest (cell cycle FACS); type: cell-based; design: key: “+” (present); “−” (absent); conditions: Rb x, p53 x
Experimental: as §1, §2

[14] = tested on: Y-79; assay: S-phase arrest (cell cycle FACS); type: cell-based; design: key: “+” (present); “−” (absent); conditions: Rb x, p53 wt
Experimental: as §1, §2

[15] = tested on: BT-549; assay: S-phase arrest (cell cycle FACS); type: cell-based; design: key: “+” (present); “−” (absent); conditions: Rb x, p53 x
Experimental: as §1, §2

[16] = tested on: SCLC-21H; assay: S-phase arrest (cell cycle FACS); type: cell-based; design: key: “+” (present); “−” (absent); conditions: Rb x, p53 x
Experimental: as §1, §2

[17] = tested on: NCI-H82; assay: S-phase arrest (cell cycle FACS); type: cell-based; design: key: “+” (present); “−” (absent); conditions: Rb x, p53 x
Experimental: as §1, §2

[18] = 5 consecutive days oral toxicity study in CD-1 mice; type: in vivo; conditions: 30 mg/kg/day orally once daily for 5 consecutive days
Experimental: The toxicity of Compound 1 was assessed for several dosing regimens for CD-1 mice, Beagle dogs, and cynomolgus monkeys.

With `CC(C)C[C@@H]1NCCN([C@@H](CC(C)C)C(=O)N2CCC3(C[C@@H]2C)OCC(CN2CCCC2)CO3)C1=O` (stereo partly drawn) [Compound 1, (S)-3-isobutyl-1-((S)-4-methyl-1-((S)-8-methyl-3-(pyrrolidin-1-ylmethyl)-1,5-dioxa-9-azaspiro[5.5]undecan-9-yl)-1-oxopentan-2-yl)piperazin-2-one] the Tumor growth inhibition ([1]; once weekly 60 mg/kg/day as 30 mg/kg BID, 6 weeks, p <0.001) was 103% (<0.001)/**6 weeks, the “anti-tumor efficacy, weekly vs daily” value ([1]; weekly 30 mg/kg BID compared to 3 mg/kg daily) was “comparable anti-tumor efficacy” and the tumor growth ([2]; 3 mg/kg QD) was “complete block of tumor growth”. The tumor growth ([2]; 1, 1.5, 2, and 3 mg/kg daily oral) was “dose dependent growth inhibition of tumors”, the PSA in blood ([2]; PR6512) was “effective PSA reduction” and the Cl ([3]; IV 1 mg/kg) was 0.0057 (mg/kg)/(nmo/L)/h. For the same compound, the Vss ([3]; IV 1 mg/kg) was 0.004 (mg/kg)/(nmo/L), the Cl ([3]; IV 4 mg/kg) was 0.0014 (mg/kg)/(nmo/L)/h and the Vss ([3]; IV 4 mg/kg) was 0.004 (mg/kg)/(nmo/L). The tolerability ([3]; IV 1 and 4 mg/kg/adm or oral gavage 3 and 12 mg/kg/adm) was “well tolerated”, the AUC(0-inf) ([3]; Beagle, IV 1 mg/kg) was 0.089 and the AUC(0-t) ([3]; Beagle, IV 1 mg/kg) was 0.063. For the same compound, the Tmax ([3]; Beagle, IV 1 mg/kg) was 4.8 min, the half-life ([3]; Beagle, IV 1 mg/kg) was 30 min and the AUC(0-inf) ([3]; Beagle, po 12 mg/kg) was 2.39. It also gave an AUC(0-t) ([3]; Beagle, po 12 mg/kg) of 1.91, a Tmax ([3]; Beagle, po 12 mg/kg) of 15 min and a half-life ([3]; Beagle, po 12 mg/kg) of 198 min. For the same compound, the AUC(0-inf) ([3]; beagle, IV 4 mg/kg) was 1.45, the AUC(0-t) ([3]; beagle, IV 4 mg/kg) was 1.29 and the Tmax ([3]; beagle, IV 4 mg/kg) was 4.8 min. The half-life ([3]; beagle, IV 4 mg/kg) was 150 min, the AUC(0-inf) ([3]; beagle, po 3 mg/kg) was 0.289 and the AUC(0-t) ([3]; beagle, po 3 mg/kg) was 0.182. For the same compound, the Tmax ([3]; beagle, po 3 mg/kg) was 15 min, the half-life ([3]; beagle, po 3 mg/kg) was 156 min and the Cl ([3]; po 3 mg/kg) was 0.0052 (mg/kg)/(nmo/L)/h. The Cl ([3]; po 12 mg/kg) was 0.0025 (mg/kg)/(nmo/L)/h, the cell cycle response [4] was “arrested in G1-phase” and the “Annexin V staining” value [5] was “induction of apoptosis”. The “S-Phase Arrest” value [6] was “+”, the “S-Phase Arrest” value [7] was “−” and the “S-Phase Arrest” value [8] was “+”. The “S-Phase Arrest” value [9] was “−”, the “S-Phase Arrest” value [10] was “+” and the “S-Phase Arrest” value [11] was “+”. The “S-Phase Arrest” value [12] was “+”, the “S-Phase Arrest” value [13] was “+” and the “S-Phase Arrest” value [14] was “−”. The “S-Phase Arrest” value [15] was “+”, the “S-Phase Arrest” value [16] was “+” and the “S-Phase Arrest” value [17] was “+”. The tolerability [18] was “well-tolerated”.
